Changes are numbered by the printed parent chain.
Experiments:
Assay in all cases: HPLC, […] nm; lactonase buffer kinetic assay (method of Thomas et al.)
Format in all cases: biochemical
Conditions in all cases: 30 °C; lactone hydrolysis
Est816 [1] = target: T1, Est816 (uncultured bacterium, UniProt Z9COY3ZA92, P27G/F28N, form not given)
T1 construct: full length, C-terminal 6xHis tag (pET-21b), E. coli BL21(DE3); catalytic triad S93, D214, H242
T1 sequence (Z9COY3ZA92 1-260 P27G/F28N): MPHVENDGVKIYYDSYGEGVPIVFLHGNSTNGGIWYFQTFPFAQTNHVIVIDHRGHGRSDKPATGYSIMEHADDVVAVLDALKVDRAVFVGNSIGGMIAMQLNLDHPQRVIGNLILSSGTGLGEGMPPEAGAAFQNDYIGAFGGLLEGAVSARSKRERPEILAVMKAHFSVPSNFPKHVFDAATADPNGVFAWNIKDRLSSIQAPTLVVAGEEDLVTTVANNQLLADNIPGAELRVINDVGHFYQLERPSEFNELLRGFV

Est816 [2] = target: T2, Est816 (uncultured bacterium, UniProt Z9COY3ZA92, V216A/N238K, form not given)
T2 construct: full length, C-terminal 6xHis tag (pET-21b), E. coli BL21(DE3); catalytic triad S93, D214, H242
T2 sequence (Z9COY3ZA92 1-260 V216A/N238K): T1 sequence (Z9COY3ZA92 1-260 P27G/F28N) with G27P, N28F, V216A, N238K

Est816 [3] = target: T3, Est816 (uncultured bacterium, UniProt Z9COY3ZA92, N238K, form not given)
T3 construct: full length, C-terminal 6xHis tag (pET-21b), E. coli BL21(DE3); catalytic triad S93, D214, H242
T3 sequence (Z9COY3ZA92 1-260 N238K): T1 sequence (Z9COY3ZA92 1-260 P27G/F28N) with G27P, N28F, N238K

Est816 [4] = target: T4, Est816 (uncultured bacterium, UniProt Z9COY3ZA92, A133V/K155N, form not given)
T4 construct: full length, C-terminal 6xHis tag (pET-21b), E. coli BL21(DE3); catalytic triad S93, D214, H242
T4 sequence (Z9COY3ZA92 1-260 A133V/K155N): T1 sequence (Z9COY3ZA92 1-260 P27G/F28N) with G27P, N28F, A133V, K155N

Est816 [5] = target: T5, Est816 (uncultured bacterium, UniProt Z9COY3ZA92, V216A, form not given)
T5 construct: full length, C-terminal 6xHis tag (pET-21b), E. coli BL21(DE3); catalytic triad S93, D214, H242
T5 sequence (Z9COY3ZA92 1-260 V216A): T1 sequence (Z9COY3ZA92 1-260 P27G/F28N) with G27P, N28F, V216A

Est816 [6] = target: T6, Est816 (uncultured bacterium, UniProt Z9COY3ZA92, L122A, form not given)
T6 construct: full length, C-terminal 6xHis tag (pET-21b), E. coli BL21(DE3); catalytic triad S93, D214, H242
T6 sequence (Z9COY3ZA92 1-260 L122A): T1 sequence (Z9COY3ZA92 1-260 P27G/F28N) with G27P, N28F, L122A

Est816 [7] = target: T7, Est816 (uncultured bacterium, UniProt Z9COY3ZA92, A133F/K155N/V216F, form not given)
T7 construct: full length, C-terminal 6xHis tag (pET-21b), E. coli BL21(DE3); catalytic triad S93, D214, H242
T7 sequence (Z9COY3ZA92 1-260 A133F/K155N/V216F): T1 sequence (Z9COY3ZA92 1-260 P27G/F28N) with G27P, N28F, A133F, K155N, V216F

Km (Est816 [1]): 3090 ± 198 µM
Km (Est816 [2]): 1140 ± 101 µM
Km (Est816 [3]): 210 ± 15.5 µM
Km (Est816 [4]): 3490 ± 146 µM
Km (Est816 [5]): 5800 ± 289 µM
Km (Est816 [6]): 105 ± 7.2 µM
Km (Est816 [7]): 759 ± 62.2 µM
Compound: CCCCCCCC(=O)NC1CCOC1=O (racemic) [C8-HSL, N-octanoyl-DL-homoserine lactone]

— paper PMC5133562, “Engineering of a thermostable esterase Est816 to improve its quorum-quenching activity and the underlying structural basis” (Scientific Reports, 2016)
